In ChEMBL document CHEMBL1150449, “Conversion of acyclic nonpeptide CCK antagonists into CCK agonists” (Bioorg Med Chem Lett, 1997):

Columns and labels:
[1] = target: T1, Cholecystokinin receptor type A (Homo sapiens, UniProt P32238); assay: Tested for the 50% displacement of [125I]CCK-8 from membrane preparation isolated from CHO-K1 cells stably transfected with the cDNA of human Cholecystokinin type A receptor; assay type: cell membranes
T1 sequence (P32238 whole entry): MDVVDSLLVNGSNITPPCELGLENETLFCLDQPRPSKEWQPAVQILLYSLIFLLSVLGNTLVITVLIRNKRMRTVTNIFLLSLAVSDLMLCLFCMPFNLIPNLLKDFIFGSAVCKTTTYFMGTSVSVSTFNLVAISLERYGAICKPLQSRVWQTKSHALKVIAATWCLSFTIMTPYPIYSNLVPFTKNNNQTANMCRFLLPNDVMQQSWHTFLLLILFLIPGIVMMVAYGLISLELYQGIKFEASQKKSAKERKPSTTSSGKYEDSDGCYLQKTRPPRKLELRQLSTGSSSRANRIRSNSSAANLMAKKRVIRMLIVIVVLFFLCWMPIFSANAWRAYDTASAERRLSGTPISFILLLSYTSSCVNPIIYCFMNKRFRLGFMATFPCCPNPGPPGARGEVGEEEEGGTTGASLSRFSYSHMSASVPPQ

[2] = target: Cholecystokinin receptor type A (Cavia porcellus); assay: Concentration of compound that induced 50% of the maximal contraction in guinea pig gallbladder tissue when tested in vitro
[3] = target: T2, Gastrin/cholecystokinin type B receptor (Homo sapiens, UniProt P32239); assay: Tested for 50% displacement of [125I]CCK-8 from membrane preparation isolated from CHO-K1 cells stably transfected with the cDNA of human Cholecystokinin type B receptor; assay type: cell membranes
T2 sequence (P32239 whole entry): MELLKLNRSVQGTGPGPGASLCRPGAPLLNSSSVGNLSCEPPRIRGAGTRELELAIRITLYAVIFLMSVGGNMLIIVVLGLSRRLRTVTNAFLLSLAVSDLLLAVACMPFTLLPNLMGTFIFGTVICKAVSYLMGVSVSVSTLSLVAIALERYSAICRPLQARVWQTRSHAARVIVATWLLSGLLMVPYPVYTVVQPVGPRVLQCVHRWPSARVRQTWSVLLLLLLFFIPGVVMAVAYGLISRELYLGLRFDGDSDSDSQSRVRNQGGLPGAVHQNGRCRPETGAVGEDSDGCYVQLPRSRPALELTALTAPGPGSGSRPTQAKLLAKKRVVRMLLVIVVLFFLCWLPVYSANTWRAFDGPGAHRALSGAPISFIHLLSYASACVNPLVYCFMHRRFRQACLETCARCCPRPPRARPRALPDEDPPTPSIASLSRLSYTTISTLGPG

Mus musculus = assay: Tested in vivo for the relative efficacy (relative to CCK-8 (1 nmol/kg)) for mouse gallbladder emptying after ip administration (0.1 umol/kg); assay type: functional

Compound	IC50 [1]	EC50 [2]	IC50 [3]	Relative efficacy (Mus musculus)
CC(C)N(C(=O)CN(C(=O)[C@@H](CCC(=O)O)NC(=O)Nc1ccccc1)c1ccccc1)c1ccccc1	1.58 µM	0.21 µM	10 µM	0.6
CC(C)N(C(=O)CN(C(=O)CNC(=O)Nc1ccccc1)c1ccccc1)c1ccccc1	3.16 µM	0.3 µM	1.58 µM	<0.2
CCCCCN(CC(=O)N(c1ccccc1)C(C)C)C(=O)[C@@H](CCC(=O)O)NC(=O)Nc1ccccc1	–	–	–	0.3

Now from value to compound, other results behind:

IC50 [1]	EC50 [2]	IC50 [3]	Compound	Relative efficacy (Mus musculus)
0.251 µM	0.11 µM	31.6 µM	COc1ccc(N(C(=O)CN(C(=O)[C@@H](CCC(=O)O)NC(=O)Nc2ccccc2)c2ccccc2)C(C)C)cc1	0.8
–	5.6 µM	–	COc1ccc(N(C(=O)CN(C(=O)[C@H](CCC(=O)O)NC(=O)Nc2ccccc2)c2ccccc2)C(C)C)cc1	–
